“Also recorded” adds a separate entry of the source. Where two headings read alike, the source gives them in different places.
Tests used:
Format in all cases: cell-based, human
Jurkat = assay: AThyR transgene selection in electroporated Jurkat, eGFP+ viable cells by PI exclusion; settings: anti-folate toxicity
Description: The Amaxa Nucleofector® II (Lonza, Allendale, N.J.) was used to electroporate both Jurkat and human PBMC. Electroporation of Jurkat cells utilized a modified buffer (Chicaybam et al., Proceedings of the National Academy of Sciences of the United States of America 2002, 99(6):3400-3405) containing 5 mM KCl, 15 mM MgCl2, 120 mM Na2HPO4/NaH2PO4, pH 7.2, and 50 mM DMSO, where 10^6 Jurkat cells per cuvette were electroporated using program T-14 before immediate transfer to CM. The addition of drug occurred 48 hours after electroporation and cell culture remained undisturbed until sampling for gene expression on days 10-12 post electroporation. Human PBMC electroporation followed a previously described protocol (Rushworth et al., supra). […]
To test the enhanced survival of each AThyR, constructs individually expressing DHFR^FS, TYMS^SS, and NeoR were ligated into the same backbone containing Sleeping Beauty (SB) transposable elements upstream of eGFP (FIG. 1B), eGFP was used to track the predominance of surviving genetically-modified T cells. […] Jurkat were assessed for eGFP expression in viable cells by propidium iodide (PI) exclusion on day 10-12 (FIG. 1C). […] Overall survival and mean fluorescence intensity (MFI) of eGFP are also given in FIG. 2AI and AII, respectively.

PBMC = system: PBMC
Description: (§1) Culture Conditions: Acellular stimulation was accomplished as previously described using soluble anti-CD3—30 ng/mL, anti-CD28—100 ng/mL, and human IL-2—50 IU/mL, as previously described. […] Acellular stimulation experiments received addition of toxic drug or treatment on the same day as stimulation.
Drug Selection of TCD4, FoxP3 by MTX Occurs in Part Through Toxicity. In order to determine how MTX contributes to the selection of TCD4, FoxP3, freshly derived PBMC were stimulated with anti-CD3/CD28 antibodies and IL-2 in the presence of cytotoxic drugs or lethal γ-irradiation. After 7 days there was a significant difference in survival markers Annexin V and 7-AAD in stimulated T cells receiving any cytotoxic insult with stimulation (FIG. 1B-I). The selection of TCD4, FoxP3 was not as consistent as cytotoxicity. […] With the exception of ribosomal elongation inhibitor G418, each cytotoxic treatment appeared to increase the percentage of surviving TCD4, FoxP3. See Bar-Nun S. et al., Biochimica et biophysica acta 1983, 741(1):123-127. […] Without wishing to be bound by theory, this pathway is likely related to the reduced proliferation rate of Treg, and appears to be ribosomally mediated as G418 can inhibit this general trend of increasing TCD4, FoxP3 percentage. See Cao M. et al., International journal of radiation biology 2011, 87(1):71-80.

TCD4, FoxP3 [1] = assay: Selection or depletion of TCD4, FoxP3 in PBMC stimulated with anti-CD3/CD28 and IL-2 in presence of drug; settings: for Selection of TCD4, FoxP3 in surviving population at lethal dose: freshly derived PBMC, day 7; for Selection or depletion of TCD4, FoxP3, dose dependence: thawed PBMC, 7 days
Description: as §1
Cultured T cells were washed in FACS staining solution[95] before surface antibody staining was performed in FACS staining solution with fluorochrome-conjugated antibodies at 4° C. for at least 30 minutes. Intracellular transcription factor and cytokine staining utilized the FoxP3/transcription factor staining buffer set manufacturer's protocol (eBioscience, 00-5523-00), and was performed following surface staining. The BD FACSCalibur (BD Biosciences) analyzed most samples expressing FoxP3. Flow cytometry data analysis utilized FlowJo v 10.0.5 (Tree Star Inc., Ashland, Oreg.). Flow cytometric imaging of cells stained for phosphorylated antigens was accomplished using the ImageStreamX Mark II (Amnis, Seattle, Wash.) with the following protocol; after surface staining, samples were fixed in 100% methanol (Sigma) for 1 hour at 4° C. before washing and staining in FoxP3/transcription factor staining buffer set wash buffer as outlined by the manufacturer's protocol. Analysis of image cytometry data utilized Amnis IDEAS v 6.0.
Drug Selection of TCD4, FoxP3 by MTX Occurs in Part Through Toxicity. In order to determine how MTX contributes to the selection of TCD4, FoxP3, freshly derived PBMC were stimulated with anti-CD3/CD28 antibodies and IL-2 in the presence of cytotoxic drugs or lethal γ-irradiation. […] See Bar-Nun S. et al., Biochimica et biophysica acta 1983, 741(1):123-127. […] See Cao M. et al., International journal of radiation biology 2011, 87(1):71-80.

Treg = assay: Sorted Treg and Teff treated with drug for 7 days, co-cultured with AaPC to Day 21; settings: for Expression of CD25, CTLA-4, or loss of IL-2: Day 21; for Expression of Treg-specific marker LAP: Day 21, early drug treatment
Text: Healthy donor derived peripheral blood from MDACC Blood Bank, Houston, Tex., was subjected to density gradient centrifugation to isolate mononuclear cells which were either rested in complete media (CM) or frozen as previously outlined. The use of rested or frozen peripheral blood derived mononuclear cells (PBMC) is outlined in each experiment. T cells from PBMC were stimulated using thawed OKT3 antibody-loaded K562 clone #4, an activating and propagating cell (AaPC). See Singh H, et al, PloS one 2013, 8(5). The presence of mycoplasma was tested in AaPC before stimulation of T cells. Cell counting was accomplished by 0.1% Trypan Blue (Sigma-Aldrich, T8154) exclusion using automated cell counting (Nexcelcom, Lawrence, Mass.). Cell Isolation was accomplished using magnetic bead based sorting with the CD4+, CD25+ Regulatory T Cell Isolation Kit following the manufacturer's instructions (Miltenyi Biotec, San Diego, Calif., 130-091-301). Briefly, CD4^+ T cells were negatively selected before sorting one time with anti-CD25 beads was used to differentiate between effector T cells (CD25^neg) and T^reg (CD25^pos).
Sorted Treg Differentiate the Effects of MTX, 5-FU, and G418 on Selection in Bulk PBMC. Magnetic sorting for CD4 and CD25 expressing PBMC yielded a CD4+ CD25+ population that is widely considered to contain Treg, and a CD25neg population of effector T cells (Teff). See Miyara M. et al., Immunity 2009, 30(6):899-911. These populations were treated with the same concentrations of MTX, 5-FU, G418, or no treatment, as above, for the first 7 days of co-culture with AaPC. After this period of time, co-culture continued without drug by stimulating with AaPC every 7 days until Day 21. Cells were assayed at this time for expression of CD25, CTLA-4, LAP, and IL-2, as before. The experimental outline can be seen in FIG. 15A. A [^3H] thymidine incorporation assay was also performed to determine the effect of each drug on the functionality of propagated Treg.

Teff = assay: [3H] thymidine incorporation suppression assay, treated Treg mixed with untreated Teff; settings: 72 hour suppression assay
Description: A thymidine incorporation assay was performed with anti-CD3/CD28 and IL-2 used to stimulate each well containing 2*10^5 viable cells. Varying ratios of effector T cells (Teff) to Treg were combined in each well and all wells were run in triplicate in U-bottom 96 well plates. At 48 hours 1 μCi [^3H] Thymidine (Perkin-Elmer, Waltham, Mass.) was added to each well, and 24 hours later the cells were assessed for radioactivity on a Top Count NXT (Perkin-Elmer). Treg mediated suppression of growth was determined by the following equation: (No Treatment Teff [cpm]−(Treg & No Treatment Teff [cpm]))/No Treatment Teff [cpm].

TCD4, FoxP3 [2] = assay: Depletion of TCD4, FoxP3 in resting, unstimulated PBMC
Text: Representative flow diagrams of resting PBMC in FIG. 14D—upper panel show the loss in expression of FoxP3 for CD4+ T cells after treatment with G418. […] Thus, […] TCD4, FoxP3 are depleted following treatment with aminoglycoside G418.

Row | Molecule | Cytotoxicity, dose dependence (PBMC) | Selection of TCD4, FoxP3 in surviving population at lethal dose (TCD4, FoxP3 [1]) | Selection or depletion of TCD4, FoxP3, dose dependence (TCD4, FoxP3 [1]) | Expression of CD25, CTLA-4, or loss of IL-2 (Treg) | Expression of Treg-specific marker LAP (Treg) | Suppression by treated Treg above untreated Treg (Teff) | other results
1 | CN(Cc1cnc2nc(N)nc(N)c2n1)c1ccc(C(=O)N[C@@H](CCC(=O)O)C(=O)O)cc1 [MTX, methotrexate] | cytotoxic at all doses tested | Significant increases | significant elevation of TCD4, FoxP3, at lower doses | no significant difference | significantly increased | improved suppression | Relative toxicity to T cells (Jurkat): more toxic to T cells than Pem
2 | CN[C@@H]1[C@@H](O)[C@@H](O[C@@H]2[C@@H](O)[C@H](O[C@H]3O[C@H]([C@@H](C)O)[C@@H](O)[C@H](O)[C@H]3N)[C@@H](N)C[C@H]2N)OC[C@]1(C)O [G418] | – | depleted | significantly depleted TCD4, FoxP3 at two moderate drug doses; also recorded: Depletion | – | – | – | Cytotoxicity, dose dependence (PBMC; thawed PBMC, 7 days): significantly cytotoxic at all doses tested; Depletion of TCD4, FoxP3 under resting conditions (TCD4, FoxP3 [2]; PBMC rested in CM 9 days): Significant depletion; Depletion of CD4+, FoxP3+, Ki-67+ cells (TCD4, FoxP3 [2]; resting PBMC, 9 days): significant G418 mediated depletion; Depletion of CD4+, FoxP3+, Ki-67neg cells (TCD4, FoxP3 [2]; resting PBMC, 9 days): not significantly depleted; Surviving TCD4, FoxP3 in the Treg compartment (Treg; Day 21, drug for first 7 days): persistently decreased surviving Treg; Treg markers (CD25, CTLA-4, decreased IL-2, LAP) with FoxP3 expression (Treg; after stimulation on day 21): decreased
3 | O=c1[nH]cc(F)c(=O)[nH]1 [5-FU, 5-fluorouracil] | – | Significant increases | – | no significant difference | significantly increased | improved suppression | –
4 | gentamicin | – | – | – | – | – | – | Depletion of TCD4, FoxP3 in resting PBMC (TCD4, FoxP3 [2]; 7 days): depletion of TCD4, FoxP3
5 | Cc1c(N)nc([C@H](CC(N)=O)NC[C@H](N)C(N)=O)nc1C(=O)N[C@H](C(=O)N[C@H](C)[C@@H](O)[C@H](C)C(=O)N[C@H](C(=O)NCCC1=N[C@@H](c2nc(C(=O)NCCCCN=C(N)N)cs2)CS1)[C@@H](C)O)[C@@H](O[C@@H]1O[C@@H](CO)[C@@H](O)[C@H](O)[C@@H]1O[C@H]1O[C@H](CO)[C@@H](O)[C@H](OC(N)=O)[C@@H]1O)c1cnc[nH]1 [Zeocin] | – | – | insignificant | – | – | – | –
6 | CO[C@H]1C[C@@H]2CC[C@@H](C)[C@@](O)(O2)C(=O)C(=O)N2CCCC[C@H]2C(=O)O[C@H]([C@H](C)C[C@@H]2CC[C@@H](O)[C@H](OC)C2)CC(=O)[C@H](C)/C=C(\C)[C@@H](O)[C@@H](OC)C(=O)[C@H](C)C[C@H](C)/C=C/C=C/C=C/1C [Rapamycin] | only occurred at the highest doses | – | – | – | – | – | –
